{"source": "patent US5043336A", "about": "(priority 1990, dated 1991)", "key": {"[1]": {"system": "experimental malignancies", "details": "in vivo; cited from earlier work"}, "pKa (66% DMF)": {"assay": "pKa (66% DMF)", "assay_type": "physicochemical"}, "[2]": {"system": "vincristine-resistant leukemias", "details": "in humans; cited from earlier work"}, "[3]": {"details": "in humans; cited from earlier work"}, "[4]": {"system": "CCRF-CEM cell line (human leukemic cells)", "assay": "CCRF-CEM Cytotoxicity Assay (growth inhibition of human leukemic cells, 72 h)", "assay_type": "cell-based", "details": "37° C.; for IC50: Homo sapiens, CCRF-CEM, 72 h, read-out: IC50 (concentration giving 50% growth inhibition)", "procedure": "The CEM cells were grown in RPMI 1640 media (MA Bioproducts) at 37° C. in humidified atmospheric conditions of 95% air and 5% carbon dioxide. The cells were grown in static suspension and maintained in log growth phase at a concentration of 3-7×10^5 cells/ml. The cells were dispersed in wells at a concentration of 4.8×10^4 /well. The drug was dissolved in dimethyl sulfoxide or water and was added at different dilutions to the cluster plates (wells). The cluster plates were incubated at 37° C. for 72 hours. After 72 hours the wells were read using a ZBI Coulter particle counter. Table 2 below gives the results of such testing of several compounds represented by Formula I above. In the table, Column 1 gives the name of the compound and Column 2 gives the IC50 (concentration giving 50% growth inhibition) in μg/ml."}, "Gardner lymphosarcoma": {"system": "Gardner lymphosarcoma", "details": "transplanted tumors in mice; cited from earlier work"}, "P1534(J) leukemia": {"system": "P1534(J) leukemia", "details": "transplanted tumors in mice; cited from earlier work"}, "[5]": {"system": "Ridgeway osteogenic sarcoma", "details": "transplanted tumors in mice; cited from earlier work"}, "[6]": {"assay": "trial test of the water solubility of the salt", "assay_type": "physicochemical", "details": "after adjusting pH to 3.6, before additional 0.5 ml of 2% sulfuric acid", "procedure": "All of the 4-desacetyl VLB C-3 N^2 -(hexahydro-2-methyl-7-oxo-1H-azepin-1-yl)carboxhydrazide prepared from Example 6 was dissolved in 50 ml of ethanol. The initial pH of 4.9 was adjusted to 3.6 with 2% sulfuric acid in ethanol. […] This material was evaporated to dryness in vacuo, which yielded 750 mg of the title compounds."}}, "note": "Counter-ions that a name gives are not always drawn.", "data": [{"compound": "CC[C@]1(O)C[C@@H]2CN(CCc3c([nH]c4ccccc34)[C@@](C(=O)OC)(c3cc4c(cc3OC)N(C)[C@H]3[C@@](O)(C(=O)OC)[C@H](OC(C)=O)[C@]5(CC)C=CCN6CC[C@]43[C@@H]65)C2)C1", "note": "[VLB, vincaleukoblastine]", "values": [{"measurement": "activity in the treatment of experimental malignancies in animals", "setting": "[1]", "result": "active"}]}, {"compound": "CC[C@]12CN3CCc4c([nH]c5ccccc45)[C@@](C(=O)OC)(c4cc5c(cc4OC)N(C)[C@H]4[C@@](O)(C(=O)OC)[C@H](OC(C)=O)[C@]6(CC)C=CCN7CC[C@]54[C@@H]76)C[C@H](C3)[C@H]1O2", "note": "[leurosine]", "values": [{"measurement": "activity in the treatment of experimental malignancies in animals", "setting": "[1]", "result": "active"}]}, {"compound": "CC[C@]1(O)C[C@@H]2CN(CCc3c([nH]c4ccccc34)[C@@](C(=O)OC)(c3cc4c(cc3OC)N(C)[C@H]3[C@@](O)(C(=O)NN=C(C)CCCCC(=O)O)[C@H](O)[C@]5(CC)C=CCN6CC[C@]43[C@@H]65)C2)C1", "note": "[4-Desacetyl VLB C-3 N^2-(5-carboxy-1-methylpentylidene)carboxhydrazide]", "values": [{"measurement": "pKa", "setting": "pKa (66% DMF); first value listed", "result": 5.3}, {"measurement": "pKa", "setting": "pKa (66% DMF); second value listed", "result": 7}, {"measurement": "pKa", "setting": "pKa (66% DMF); third value listed", "result": 8.1}]}, {"compound": "CC[C@@]1(O)C[C@@H]2CN(CCc3c([nH]c4ccccc34)[C@@](C(=O)OC)(c3cc4c(cc3OC)N(C)[C@H]3[C@@](O)(C(=O)OC)[C@H](OC(C)=O)[C@]5(CC)C=CCN6CC[C@]43[C@@H]65)C2)C1", "note": "[leurosidine]", "values": [{"measurement": "activity in the treatment of experimental malignancies in animals", "setting": "[1]", "result": "active"}]}, {"compound": "CCC1(O)CN2CCc3c([nH]c4ccccc34)C(C(=O)OC)(c3cc4c(cc3OC)N(C)C3C(O)(C(=O)OC)CC5(CC)C=CCN6CCC43C65)CC(C2)C1O", "note": "(centres unmarked) [4-desacetoxy-3'-hydroxyvinblastine]", "values": [{"measurement": "activity in the treatment of experimental malignancies in animals", "setting": "[1]", "result": "active"}]}, {"compound": "CCC1CC2CN(CCc3c([nH]c4ccccc34)C(C(=O)OC)(c3cc4c(cc3OC)N(C)C3C(O)(C(=O)OC)C(OC(C)=O)C5(CC)C=CCN6CCC43C65)C2)C1", "note": "(centres unmarked) [deoxy VLB \"A\"]", "values": [{"measurement": "activity in the treatment of experimental malignancies in animals", "setting": "[1]", "result": "active"}]}, {"compound": "CC[C@]1(O)C[C@@H]2CN(CCc3c([nH]c4ccccc34)[C@@](C(=O)OC)(c3cc4c(cc3OC)N(C)[C@H]3[C@@](O)(C(N)=O)[C@H](O)[C@]5(CC)C=CCN6CC[C@]43[C@@H]65)C2)C1", "note": "[vindesine, 4-desacetyl VLB C-3 carboxamide]", "values": [{"measurement": "effectiveness against vincristine-resistant leukemias", "setting": "[2]", "result": "apparently effective"}, {"measurement": "neurotoxicity compared with vincristine", "setting": "[3]", "result": "less neurotoxicity than does vincristine"}]}, {"compound": "CC[C@]1(O)C[C@@H]2CN(CCc3c([nH]c4ccccc34)[C@@](C(=O)OC)(c3cc4c(cc3OC)N(C)[C@H]3[C@@](O)(C(=O)NN5C(=O)CCC5C)[C@H](O)[C@]5(CC)C=CCN6CC[C@]43[C@@H]65)C2)C1", "note": "(single isomer, unassigned) [4-Desacetyl VLB C-3 N^2 -(2-methyl-5-oxo-1-pyrrolidinyl)carb] [4-Desacetyl VLB C-3 N^2-(2-methyl-5-oxo-1-pyrrolidinyl)carboxhydrazide(Isomer 2) sulfate salt]", "values": [{"measurement": "IC50 (concentration giving 50% growth inhibition)", "setting": "[4]; sulfate salt", "result": 0.09, "unit": "µg/mL"}]}, {"compound": "CC[C@]1(O)C[C@@H]2CN(CCc3c([nH]c4ccccc34)[C@@](C(=O)OC)(c3cc4c(cc3OC)N(C)[C@@H]3[C@]45CCN4CC=C[C@@](CC)(C[C@]3(O)C(=O)OC)[C@H]45)C2)C1", "note": "[4-desacetoxyvinblastine]", "values": [{"measurement": "activity in the treatment of experimental malignancies in animals", "setting": "[1]", "result": "active"}]}, {"compound": "CCC1(O)CN2CCc3c([nH]c4ccccc34)C(C(=O)OC)(c3cc4c(cc3OC)N(C)C3C(O)(C(=O)OC)C(OC(C)=O)C5(CC)C=CCN6CCC43C65)CC(O)(C2)C1", "note": "(centres unmarked) [leurocolombine]", "values": [{"measurement": "activity in the treatment of experimental malignancies in animals", "setting": "[1]", "result": "active"}]}, {"compound": "CC[C@]1(O)C[C@@H]2CN(CCc3c([nH]c4ccccc34)[C@@](C(=O)OC)(c3cc4c(cc3OC)N(C)[C@H]3[C@@](O)(C(=O)NN)[C@H](O)[C@]5(CC)C=CCN6CC[C@]43[C@@H]65)C2)C1", "note": "[4-Desacetyl VLB C-3 carboxhydrazide]", "values": [{"measurement": "activity against Gardner lymphosarcoma", "setting": "Gardner lymphosarcoma", "result": "active"}, {"measurement": "activity against P1534(J) leukemia", "setting": "P1534(J) leukemia", "result": "active"}, {"measurement": "activity against Ridgeway osteogenic sarcoma", "setting": "[5]", "result": "active"}]}, {"compound": "CC[C@]1(O)C[C@@H]2CN(CCc3c([nH]c4ccccc34)[C@@](C(=O)OC)(c3cc4c(cc3OC)N(C)[C@H]3[C@@](O)(C(=O)NN5C(=O)CCCCC5C)[C@H](O)[C@]5(CC)C=CCN6CC[C@]43[C@@H]65)C2)C1", "note": "(some centres unmarked) [4-Desacetyl VLB C-3 N^2-(hexahydro-2-methyl-7-oxo-1H-azepin-1-yl)carboxhydrazide sulfate salt]", "values": [{"measurement": "IC50", "setting": "[4]", "result": 0.0056, "unit": "µg/mL"}, {"measurement": "water solubility of the salt", "setting": "[6]", "result": "not completely soluble"}]}, {"compound": "CC[C@]1(O)C[C@H]2CN(CCc3c([nH]c4ccccc34)[C@@](C(=O)OC)(c3cc4c(cc3OC)N(C=O)[C@H]3[C@@](O)(C(=O)OC)[C@H](OC(C)=O)[C@]5(CC)C=CCN6CC[C@]43[C@@H]65)C2)C1", "note": "[vincristine]", "values": [{"measurement": "activity in the treatment of experimental malignancies in animals", "setting": "[1]", "result": "active"}]}, {"compound": "CCC1(O)CN2CCc3c([nH]c4ccccc34)C(C(=O)OC)(c3cc4c(cc3OC)N(C)C3C(O)(C(=O)OC)C(OC(C)=O)C5(CC)C=CCN6CCC43C65)CC(C2)C1O", "note": "(centres unmarked) [vincadioline]", "values": [{"measurement": "activity in the treatment of experimental malignancies in animals", "setting": "[1]", "result": "active"}]}, {"compound": "CC[C@]1(O)C[C@@H]2CN(CCc3c([nH]c4ccccc34)[C@@](C(=O)OC)(c3cc4c(cc3OC)N(C)[C@H]3[C@@](O)(C(=O)N5N=C(C)CCCC5=O)[C@H](O)[C@]5(CC)C=CCN6CC[C@]43[C@@H]65)C2)C1", "note": "[4-Desacetyl VLB C-3 N^1-(4,5,6,7-tetrahydro-3-methyl-7-oxo-1H-1,2-diazepin-1-yl)carboxhydrazide sulfate salt]", "values": [{"measurement": "IC50", "setting": "[4]", "result": 0.019, "unit": "µg/mL"}]}, {"compound": "CC[C@]1(O)C[C@@H]2CN(CCc3c([nH]c4ccccc34)[C@@](C(=O)OC)(c3cc4c(cc3OC)N(C)[C@H]3[C@@](O)(C(=O)NN5C(=O)CCC5C)[C@H](O)[C@]5(CC)C=CCN6CC[C@]43[C@@H]65)C2)C1", "note": "(single isomer, unassigned) [4-Desacetyl VLB C-3 N^2-(2-methyl-5-oxo-1-pyrrolidinyl)carboxhydrazide(Isomer 1) sulfate salt]", "values": [{"measurement": "IC50", "setting": "[4]", "result": 0.1, "unit": "µg/mL"}]}, {"compound": "CC[C@]1(O)C[C@@H]2CN(CCc3c([nH]c4ccccc34)[C@@](C(=O)OC)(c3cc4c(cc3OC)N(C)[C@H]3[C@@](O)(C(=O)NNC(C)CCC(=O)O)[C@H](O)[C@]5(CC)C=CCN6CC[C@]43[C@@H]65)C2)C1", "note": "(some centres unmarked) [4-Desacetyl VLB C-3 N^2-(3-carboxy-1-methylpropyl)carboxhydrazide]", "values": [{"measurement": "pKa", "setting": "pKa (66% DMF); first value listed", "result": 5.3}, {"measurement": "pKa", "setting": "pKa (66% DMF); second value listed", "result": 6.9}, {"measurement": "pKa", "setting": "pKa (66% DMF); third value listed", "result": 7.9}]}, {"compound": "CC[C@]12CN3CCc4c([nH]c5ccccc45)[C@@](C(=O)OC)(c4cc5c(cc4OC)N(C=O)[C@H]4[C@@](O)(C(=O)OC)[C@H](OC(C)=O)[C@]6(CC)C=CCN7CC[C@]54[C@@H]76)C[C@@H](C3)[C@H]1O2", "note": "[leuroformine]", "values": [{"measurement": "activity in the treatment of experimental malignancies in animals", "setting": "[1]", "result": "active"}]}, {"compound": "CC[C@]1(O)C[C@@H]2CN(CCc3c([nH]c4ccccc34)[C@@](C(=O)OC)(c3cc4c(cc3OC)N(C)[C@H]3[C@@](O)(C(=O)NN=C(C)CCCC(=O)O)[C@H](O)[C@]5(CC)C=CCN6CC[C@]43[C@@H]65)C2)C1", "note": "[4-Desacetyl VLB C-3 N^2-(4-carboxy-1-methylbutylidene)carboxhydrazide]", "values": [{"measurement": "pKa", "setting": "pKa (66% DMF); first value listed", "result": 5.1}, {"measurement": "pKa", "setting": "pKa (66% DMF); second value listed", "result": 6.6}, {"measurement": "pKa", "setting": "pKa (66% DMF); third value listed", "result": 7.7}]}]}
